In patent US11389449B2, “Treatment of metabolic syndrome with an sGC stimulator” (Cyclerion Therapeutics, Inc., priority 2017, dated 2022):

Legend:
ZSF1 obese rats = assay: ZSF1 rat study: serum clinical chemistry (cholesterol, triglycerides), body weight, clinical observations; assay type: in vivo
Excerpt: Blood and 24-hour urine samples were obtained from all animals at day 0 (15 weeks of age; prior to the initiation of enalapril treatment). Animals in Groups 3, 7, 8 and 9 were placed on drinking water containing enalapril and kept on Purina 5008 rodent chow (C13000). Animals in Group 1, 2, 4, 5 and 6 were kept on Purina 5008 rodent chow and drinking water. Ten days after the initiation of enalapril treatment, blood and 24-hour urine samples were collected from all animals. After day 10 blood and urine collections, animals in Groups 4, 5 and 6 received Compound I at 1, 3 and 10 mg/kg/day, respectively for 11 weeks. In addition to enalapril treatment, animals in Groups 7, 8 and 9 received Compound I at 1, 3 and 10 mg/kg/day, respectively for an additional 11 weeks.
Body weight and 24-hour water intake were obtained at least once every other week. 24-hour food intake was measured at baseline and week 8.
Plasma (for biomarker) and serum (for clinical chemistry analysis) samples were collected from all treatment groups at baseline, day 10, weeks 5 and 9 prior to placing the animals into the metabolic cages. Plasma samples were obtained from Groups 3-9 for measurement of compound exposure levels at weeks 5 and 11. Terminal plasma and serum samples were obtained at necropsy.
For serum samples, blood was collected in serum separator tubes, maintained at room temperature for at least 30 minutes and then centrifuged at 6000 rpm for 10 minutes. Serum samples were stored at −80° C. until analysis. Urine and serum samples were analyzed using the Randox Daytona Clinical Chemistry Analyzer. All measurements were performed in accordance with manufacturer's instructions.
Animal #8 (in Group 3, ZSF1—enalapril 3 mg/kg/day) was found dead 3 days after the initiation of enalapril treatment.

[1] = tested on: obese/high fat diet C57Bl/6J mice; assay: DIO mouse model: fasting plasma biomarkers and liver triglycerides; assay type: in vivo; details: DIO HFD mice, approx 6 mg/kg in diet
Excerpt: The objective of this animal study was to evaluate the effects of Compound I in the mouse diet induced obesity (DIO) model. Assessments included body weight, food intake, oral glucose tolerance test (OGTT) and fasting plasma biomarkers of metabolic control.
Male C57Bl/6J mice with baseline body weights of 25.0-29.0 grams (lean controls) and 31.5-45.0 grams (obese/high fat diet treated) respectively, were used for this study. The lean mice (n=8) were maintained on a standard chow diet. The obese mice were given 60% high fat diet (HFD) starting at 6 weeks of age. All animals were allowed free access to drinking water and chow. The study was begun when the mice were 12 weeks of age and concluded after 4 weeks (16 weeks of age). The obese control group (n=8 mice) was maintained on HFD. The Compound I group (n=8 obese mice) was treated with HFD containing 90 mg Compound I/kg (an approximate dose of 6 mg/kg). Body weights were determined twice weekly and food intake was measured daily for 28 days. An OGTT was performed on each animal at day 28 or 29 and the animals were sacrificed on the following day. On the terminal day, 3 hour fasted blood was collected for compound concentrations and plasma biomarkers analysis including glucose, insulin and triglycerides. Organs were collected, weighed and snap frozen in liquid nitrogen for further analysis.

[2] = obese ZSF1 rats, 3 and 10 mg/kg, compared to placebo and enalapril, not statistically significant

## OC(CNc1nc(-c2cc(-c3ccon3)n(Cc3ccccc3F)n2)ncc1F)(C(F)(F)F)C(F)(F)F [Compound I]
ZSF1 obese rats; obese ZSF1 rats
  reduction of weight: No effects were observed
ZSF1 obese rats; [2]
  effect on cholesterol levels: some reduction in cholesterol was observed
  effect on triglyceride levels: some reduction in TGs was observed
ZSF1 obese rats; rat, in vivo, 1 mg/kg/day
  clinical observation: enlarged left kidney's filled with brown fluid consistent with hydronephrosis
[1]; after 4 weeks
  Fasting plasma glucose: unchanged
[1]; after 4 weeks, P<0.01
  plasma insulin change vs obese controls: −53%
  plasma triglycerides change vs obese controls: −30%
[1]; compared to obese controls
  circulating and liver triglycerides: lowered
